Results published in patent US12173018B2, “Penicillin-binding protein inhibitors” (priority 2018, dated 2024).
Values after ≈ are worked out from the molar mass of the structure shown. Where a name gives a salt, the structure may show the parent alone. Read-outs that look alike come from different tables or passages of the source.

How the values were obtained:
[1] = test system: E. coli DH5α empty pLBII vector control strain; assay: microbe, parasite or virus in culture; type: cell-based, Escherichia coli; conditions: for MIC: Escherichia coli, read-out: Microbiological Activity (MIC in mg/L), E. coli DH5α/pLBII
Procedure: Briefly, cryo-preserved bacterial cultures of challenge strains are streaked for isolation on appropriate agar medium, in this case Mueller Hinton II agar. Following incubation to allow growth of the colonies, plates are sealed with parafilm and stored refrigerated for up to two weeks. For preparation of assay inoculum and to ensure low variability, at least 5 colonies are picked from the agar plates with an inoculating loop and aseptically transferred to a culture tube containing 3 mL of Mueller-Hinton Broth (supplemented with divalent cations to required levels based on Manufacturers' certification). The broth culture is grown for 3-5 hours at 37° C. with shaking at 200 rpm. Meanwhile, 2-fold serial dilutions of test compounds are conducted in a 96 well plate with a final volume of 75 μL per well at 2-fold the final desired concentration. After the dilution plates are set up the growing cultures are then diluted in a cuvette containing MH II broth and the optical density is measured at 600 nm. The Inoculum is diluted such that 75 μL of this culture in Mueller-Hinton Broth results in a starting bacterial concentration of 5×10^5 CFU/mL when added to the dilution plates. The plates are incubated for 16-20 hours at 37° C. The MIC values are read visually as the lowest concentration well with no bacterial growth.
To determine if test compounds were affected by CTX-M15, the most abundant extended spectrum […] in clinical settings worldwide, the inhibition of the growth of an engineered strain of Escherichia coli harboring CTX-M15 was tested. This strain was constructed by cloning the gene encoding CTX-M15 into the NdeI and BamHI restriction endonuclease sites of plasmid pLBII, placing the gene(s) under the control of the Lac promoter. The constructed expression plasmid for CTX-M15 was used to transform competent E. coli DH5α cells to make the engineered strain, including an empty pLBII vector control strain. The classic cell based broth microdilution MIC assay was employed as described above with the addition of control antibiotics, known to be degraded by β-lactamases (Ceftazidime, piperacillin and piperacillin+tazobactam).

[2] = test system: engineered strain of Escherichia coli harboring CTX-M15; assay: microbe, parasite or virus in culture; type: cell-based; conditions: for MIC: Escherichia coli, read-out: Microbiological Activity (MIC in mg/L), E. coli DH5α/pLBII-CTX-M15, engineered strain producing CTX-M15
E. coli PBP3 = E. coli PBP3 (Escherichia coli (strain K12), UniProt P0AD68); assay: E. coli PBP3 Bocillin-FL fluorescence polarization competition binding assay
Summary of the method: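 Competition against 0.1 μM Bocillin-FL for binding to 1.5 μM purified protein, read by fluorescence polarization for 60 min. Compounds tested from 0 to 1000 μM; EC50 taken as the concentration reducing probe binding.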

E. coli ATCC 25922 = assay: Broth microdilution MIC, E. coli ATCC 25922; type: cell-based; conditions: Escherichia coli
Summary of the method: (§1)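 Strains are tested by standard CLSI broth microdilution. Log-phase cells, diluted by OD600 to 5×10^5 CFU/mL, meet 2-fold compound series and incubate 16-20 hours at 37° C before the lowest growth-free concentration is recorded.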

E. coli AG100 = assay: Broth microdilution MIC, E. coli AG100 (wild-type parent); type: cell-based; conditions: Escherichia coli; wild-type parent E. coli AG100, broth microdilution; read-out: MIC E. coli AG100
Summary of the method: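 Starting inoculum of 5×10^5 CFU/mL, from colonies grown 3-5 h in Mueller-Hinton broth with divalent cations, added to two-fold compound dilution series.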

E. coli AG100A = assay: microbe, parasite or virus in culture; type: cell-based; conditions: Escherichia coli, read-out: MIC E. coli AG100A
Summary of the method: as §1

E. coli 901C = assay: microbe, parasite or virus in culture; type: cell-based; conditions: Escherichia coli; hyper-permeable E. coli 901C, broth microdilution; read-out: MIC E. coli 901C
Summary of the method: as §1

K. pneumoniae UMM = assay: microbe, parasite or virus in culture; type: cell-based; conditions: Klebsiella pneumoniae; K. pneumoniae UMM producing SHV-5 and KPC-2; read-out: MIC K. pneumoniae UMM
Summary of the method: as §1

[3] = ATCC25922, read-out: MIC E. coli 25922

Sequence of E. coli PBP3 (P0AD68 whole entry): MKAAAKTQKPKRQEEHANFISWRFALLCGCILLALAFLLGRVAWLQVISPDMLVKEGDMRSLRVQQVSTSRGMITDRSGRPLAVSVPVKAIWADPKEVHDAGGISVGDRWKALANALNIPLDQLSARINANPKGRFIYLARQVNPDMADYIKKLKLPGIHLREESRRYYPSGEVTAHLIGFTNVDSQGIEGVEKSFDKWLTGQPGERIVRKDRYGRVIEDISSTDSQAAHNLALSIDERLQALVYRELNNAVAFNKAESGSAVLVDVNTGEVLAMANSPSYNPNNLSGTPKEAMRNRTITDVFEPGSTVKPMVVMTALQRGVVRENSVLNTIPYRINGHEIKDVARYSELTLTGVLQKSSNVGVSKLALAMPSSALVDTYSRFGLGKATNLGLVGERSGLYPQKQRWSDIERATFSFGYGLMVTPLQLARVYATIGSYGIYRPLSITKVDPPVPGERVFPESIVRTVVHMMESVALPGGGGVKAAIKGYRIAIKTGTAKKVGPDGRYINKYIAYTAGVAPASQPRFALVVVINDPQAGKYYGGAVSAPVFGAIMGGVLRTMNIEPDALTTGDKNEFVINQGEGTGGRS

| SMILES | MIC [1] [mg/L] | MIC [2] [mg/L] | also measured |
| --- | --- | --- | --- |
| CCN1CCN(C(=O)NC(C)(CCO)C(=O)N[C@H]2Cc3cccc(C(=O)O)c3OB2O)C(=O)C1=O (stereo partly drawn) [Example 12, (3R)-3-(2-(4-ethyl-2,3-dioxopiperazine-1-carboxamido)-4-hydroxy-2-methylbutanamido)-2-hydroxy-3,4-dihydro-2H-benzo[e][1,2]oxaborinine-8-carboxylic acid] | > 512 | > 512 |  |
| CCN1CCN(C(=O)N[C@@H](C(=O)N[C@@H]2C(=O)N3[C@@H]2SC(C)(C)[C@@H]3C(=O)O)c2ccccc2)C(=O)C1=O [piperacillin, reference compound] |  |  | Microbiological Activity (MIC in mg/L), E. coli DH5α/pLBII [1]: F (F represents an MIC<1 μg/mL); MIC in CTX-M15 producer compared with parent strain with empty pLBII plasmid ([2]; engineered E. coli DH5α with CTX-M15 vs empty vector control): weaker MICs in the CTX-M15 producer; Microbiological Activity (MIC in mg/L), E. coli DH5α/pLBII-CTX-M15 ([2]; engineered strain producing CTX-M15): B (B represents an MIC of 128 to 256 μg/mL) |
| CCN1CCN(C(=O)NCC(CN)(CO)C(=O)N[C@H]2Cc3cccc(C(=O)O)c3OB2O)C(=O)C1=O (stereo partly drawn) [Example 15, (3R)-3-(3-amino-2-((4-ethyl-2,3-dioxopiperazine-1-carboxamido)methyl)-2-(hydroxymethyl)propanamido)-2-hydroxy-3,4-dihydro-2H-benzo[e][1,2]oxaborinine-8-carboxylic acid, trifluoroacetic acid salt] | > 512 | > 512 |  |
| CCN1CCN(C(=O)C[C@H](N)C(=O)N[C@H]2Cc3cccc(C(=O)O)c3OB2O)C(=O)C1=O [Example 19, (R)-3-((S)-2-amino-4-(4-ethyl-2,3-dioxopiperazin-1-yl)-4-oxobutanamido)-2-hydroxy-3,4-dihydro-2H-benzo[e][1,2]oxaborinine-8-carboxylic acid] | > 512 | > 512 |  |
| CCN1CCN(C(=O)NC(C(=O)N[C@H]2Cc3cccc(C(=O)O)c3OB2O)c2csc(N)n2)CC1=O (stereo partly drawn) [Example 18, (3R)-3-(2-(2-aminothiazol-4-yl)-2-(4-ethyl-3-oxopiperazine-1-carboxamido)acetamido)-2-hydroxy-3,4-dihydro-2H-benzo[e][1,2]oxaborinine-8-carboxylic acid] | 128 to 256 (≈ 248 to 496 µM) | 128 to 256 (≈ 248 to 496 µM) | EC50 (E. coli PBP3): 30 to 500 µM |
| CCN1CCN(C(=O)C[C@@H](N)C(=O)N[C@H]2Cc3cccc(C(=O)O)c3OB2O)C(=O)C1=O [Example 32, (R)-3-((R)-2-amino-4-(4-ethyl-2,3-dioxopiperazin-1-yl)-4-oxobutanamido)-2-hydroxy-3,4-dihydro-2H-benzo[e][1,2]oxaborinine-8-carboxylic acid] | > 512 | > 512 |  |
| CCN1CCN(C(=O)NC(C(=O)N[C@H]2Cc3cccc(C(=O)O)c3OB2O)c2nsc(N)n2)C(=O)C1=O (stereo partly drawn) [Example 10, (3R)-3-(2-(5-amino-1,2,4-thiadiazol-3-yl)-2-(4-ethyl-2,3-dioxopiperazine-1-carboxamido)acetamido)-2-hydroxy-3,4-dihydro-2H-benzo[e][1,2]oxaborinine-8-carboxylic acid] | 8 to 16 (≈ 15.1 to 30.1 µM) | 8 to 16 (≈ 15.1 to 30.1 µM) | MIC (E. coli ATCC 25922; [3]): 8 to 16 µg/mL; MIC (E. coli AG100): 32 to 64 µg/mL; MIC (E. coli AG100A): 2 to 4 µg/mL; MIC (E. coli 901C): 0.5 to 1 µg/mL; MIC (K. pneumoniae UMM): 8 to 16 µg/mL |
| CCN1CCN(C(=O)N2C[C@@H](O)C[C@@H]2C(=O)N[C@H]2Cc3cccc(C(=O)O)c3OB2O)C(=O)C1=O [Example 9, (R)-3-((2R,4S)-1-(4-ethyl-2,3-dioxopiperazine-1-carbonyl)-4-hydroxypyrrolidine-2-carboxamido)-2-hydroxy-3,4-dihydro-2H-benzo[e][1,2]oxaborinine-8-carboxylic acid] | > 512 | > 512 | MIC (E. coli ATCC 25922; [3]): > 128 µg/mL; MIC (E. coli AG100): > 128 µg/mL; MIC (E. coli AG100A): > 128 µg/mL; MIC (E. coli 901C): > 128 µg/mL; MIC (K. pneumoniae UMM): > 128 µg/mL |
| CCN1CCN(C(=O)NC(C(=O)N[C@H]2Cc3cccc(C(=O)O)c3OB2O)c2ccc(OC)c(OC)c2)C(=O)C1=O (stereo partly drawn) [Example 21, (3R)-3-(2-(3,4-dimethoxyphenyl)-2-(4-ethyl-2,3-dioxopiperazine-1-carboxamido)acetamido)-2-hydroxy-3,4-dihydro-2H-benzo[e][1,2]oxaborinine-8-carboxylic acid] | 128 to 256 (≈ 225 to 450 µM) | 128 to 256 (≈ 225 to 450 µM) | EC50 (E. coli PBP3): 30 to 500 µM |
| CCN1CCN(C(=O)NC(C(=O)N[C@H]2Cc3cccc(C(=O)O)c3OB2O)c2cc(OC)c(OC)c(OC)c2)C(=O)C1=O (stereo partly drawn) [Example 30, (3R)-3-(2-(4-ethyl-2,3-dioxopiperazine-1-carboxamido)-2-(3,4,5-trimethoxyphenyl)acetamido)-2-hydroxy-3,4-dihydro-2H-benzo[e][1,2]oxaborinine-8-carboxylic acid] | > 512 | > 512 |  |
| Nc1nc(C(NC(=O)N2CCN(CCF)C(=O)C2=O)C(=O)N[C@H]2Cc3cccc(C(=O)O)c3OB2O)c(Cl)s1 (stereo partly drawn) [Example 13, (3R)-3-(2-(2-amino-5-chlorothiazol-4-yl)-2-(4-(2-fluoroethyl)-2,3-dioxopiperazine-1-carboxamido)acetamido)-2-hydroxy-3,4-dihydro-2H-benzo[e][1,2]oxaborinine-8-carboxylic acid] | 8 to 16 (≈ 13.7 to 27.5 µM) | 8 to 16 (≈ 13.7 to 27.5 µM) | MIC (E. coli ATCC 25922; ATCC25922, E. coli ATCC 25922, broth microdilution, read-out: MIC E. coli 25922): 32 to 64 µg/mL; MIC (E. coli AG100): 32 to 64 µg/mL; EC50 (E. coli PBP3): 30 to 500 µM; MIC (E. coli AG100A): 2 to 4 µg/mL; MIC (E. coli 901C): < 0.25 µg/mL; MIC (K. pneumoniae UMM): 32 to 64 µg/mL |
| CCN1CCN(C(=O)N[C@H](C(=O)N[C@H]2Cc3cccc(C(=O)O)c3OB2O)c2ccc(O)c(O)c2)C(=O)C1=O [Example 38, (R)-3-((S)-2-(3,4-dihydroxyphenyl)-2-(4-ethyl-2,3-dioxopiperazine-1-carboxamido)acetamido)-2-hydroxy-3,4-dihydro-2H-benzo[e][1,2]oxaborinine-8-carboxylic acid] | 2 to 4 (≈ 3.7 to 7.4 µM) | 2 to 4 (≈ 3.7 to 7.4 µM) | EC50 (E. coli PBP3): 30 to 500 µM |
| CCN1CCN(C(=O)N2C[C@H](O)C[C@@H]2C(=O)N[C@H]2Cc3cccc(C(=O)O)c3OB2O)C(=O)C1=O [Example 28, (R)-3-((2R,4R)-1-(4-ethyl-2,3-dioxopiperazine-1-carbonyl)-4-hydroxypyrrolidine-2-carboxamido)-2-hydroxy-3,4-dihydro-2H-benzo[e][1,2]oxaborinine-8-carboxylic acid] | > 512 | > 512 |  |
| CCN1CCN(C(=O)N2CC(CN)(C(=O)N[C@H]3Cc4cccc(C(=O)O)c4OB3O)C2)C(=O)C1=O [Example 14, (R)-3-(3-(aminomethyl)-1-(4-ethyl-2,3-dioxopiperazine-1-carbonyl)azetidine-3-carboxamido)-2-hydroxy-3,4-dihydro-2H-benzo[e][1,2]oxaborinine-8-carboxylic acid, trifluoroacetic acid salt] | > 512 | > 512 |  |
